In article PMC5225203, “Multiparameter toxicity assessment of novel DOPO-derived organophosphorus flame retardants” (Archives of Toxicology, 2016):

Legend:
Daphnia magna = details: water-soluble fraction of a 1000 mg/L suspension (approximately 2 mM), 48 h; ref Waaijers et al. [2013a], [b]; cited from earlier work
[1] = system: rat neuroblastoma B35 cells; details: B35, 24 h, maximal concentration 100 µM; ref Hendriks et al. [2014]; cited from earlier work
[2] = system: differentiating LUHMES cells; assay type: cell-based, human; details: day 0 to day 2
Description: LUHMES cells are conditionally immortalized human fetal ventral mesencephalic neuronal precursor cells that were obtained by clonal selection. Differentiated LUHMES cells show a clear dopaminergic phenotype, which was described in detail previously (Schildknecht et al. [2009]; Scholz et al. [2011]). Cells were propagated in advanced DMEM/F12 (Gibco/Invitrogen, Darmstadt, Germany) with 1 × N2 supplement (Invitrogen), 2 mM L-glutamine (Gibco), and 40 ng/mL recombinant bFGF (R&D Systems, Minneapolis, MN, USA). […] For quantitative evaluation of the neurite area, β-III-tubulin-stained cells were analyzed using an automated microplate-reading microscope (Array-Scan II® HCS Reader, Cellomics, Pittsburgh, PA, USA) equipped with a Hamamatsu ORCA-ER camera (1024 × 1024 resolution; run at 2 × 2 binning). […]
For quantitative assessment of total neurite mass, cells were analysed by an automated microscope system with imaging algorithms allowing a separation between cell bodies and […]
Suppl. […] Differentiating human dopaminergic neurons (LUHMES) were treate d with the different flame retardants in the concentrations as indicated for 48 h from day 0 to day 2 of differentiation. a Cell viability was determined by the resazurin redu ction and by the lactate dehydrogenase release assays. b Intracellular levels of ATP and of reduced glutathione (GSH) were measured in parallel.

human neural crest cells = system: human neural crest cells; design: method as in Zimmer et al. [2014]; details: concentrations as high as 100 µM; ref Zimmer et al. [2014]; cited from earlier work

## O=[PH]1Oc2ccccc2-c2ccccc21 (centres unmarked) [DOPO, 9,10-dihydro-9-oxa-10-phosphaphenanthrene-10-oxide]
Daphnia magna
  influence on daphnid viability: did not significantly influence viability
[1]
  alterations in cell viability, generation of reactive oxygen species, or intracellular Ca2+ levels: no signs of alterations

## O=P1(NCCNP2(=O)Oc3ccccc3-c3ccccc32)Oc2ccccc2-c2ccccc21 (centres unmarked) [EDA-DOPO, 6,6′-(ethane-1,2-diylbis(azanediyl))bis(6H-dibenzo[c,e][1,2]oxaphosphinine-6-oxide)]
[2]
  influence on total neurite area: moderate, but significant influence
  intracellular levels of ATP and GSH: this effect was not reflected

## Brc1ccc(Oc2cc(Br)c(Br)cc2Br)c(Br)c1 [PBDE-99, reference compound]
Human neural crest cells
  NCC migration and cell death: inhibited migration in the absence of cell death
